Experimental data reported in patent US10774096B2, “4-substituted benzoxaborole compounds and uses thereof” (GLAXOSMITHKLINE INTELLECTUAL PROPERTY (NO.2) LIMITED, priority 2015, dated 2020).
pIC50: −log10 of the molar value. Converted amounts (≈) assume the structure as drawn. “And” between values parts separate entries of the source, which are not always exact repeats. Identical values can stand only once. Counter-ions that a name gives are not always drawn. Like-named read-outs stand apart in the source and are kept apart here.

How the values were obtained:
Mtb LeuRS = Mtb LeuRS (Mycobacterium tuberculosis, UniProt P9WFV1); test: LeuRS aminoacylation assay, IC50 determination; type: biochemical, M. tuberculosis
Mtb LeuRS, sequence (P9WFV1 whole entry): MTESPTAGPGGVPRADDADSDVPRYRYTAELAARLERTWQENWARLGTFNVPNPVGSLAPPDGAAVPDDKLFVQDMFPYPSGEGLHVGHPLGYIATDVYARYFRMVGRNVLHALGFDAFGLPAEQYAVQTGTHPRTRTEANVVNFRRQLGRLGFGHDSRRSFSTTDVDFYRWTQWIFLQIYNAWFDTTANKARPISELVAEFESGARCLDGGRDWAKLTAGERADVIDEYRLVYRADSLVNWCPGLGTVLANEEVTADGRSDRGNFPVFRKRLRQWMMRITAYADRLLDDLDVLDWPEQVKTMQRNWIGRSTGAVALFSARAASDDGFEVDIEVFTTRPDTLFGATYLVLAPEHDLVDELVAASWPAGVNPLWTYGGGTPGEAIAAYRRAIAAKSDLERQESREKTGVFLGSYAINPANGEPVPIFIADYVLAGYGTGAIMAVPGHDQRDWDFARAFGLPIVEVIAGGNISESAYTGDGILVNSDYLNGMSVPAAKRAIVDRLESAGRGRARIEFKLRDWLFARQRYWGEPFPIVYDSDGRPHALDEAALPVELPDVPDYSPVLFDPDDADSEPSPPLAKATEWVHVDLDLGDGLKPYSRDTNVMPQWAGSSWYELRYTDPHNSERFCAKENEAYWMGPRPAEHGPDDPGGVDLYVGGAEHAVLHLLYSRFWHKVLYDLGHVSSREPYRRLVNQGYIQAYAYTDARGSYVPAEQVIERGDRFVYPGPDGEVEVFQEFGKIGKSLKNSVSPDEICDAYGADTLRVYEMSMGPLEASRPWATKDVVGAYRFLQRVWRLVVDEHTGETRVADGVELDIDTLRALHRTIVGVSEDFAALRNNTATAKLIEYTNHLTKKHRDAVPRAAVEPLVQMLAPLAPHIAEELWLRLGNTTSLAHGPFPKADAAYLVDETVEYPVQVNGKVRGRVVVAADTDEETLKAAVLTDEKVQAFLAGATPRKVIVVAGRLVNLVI
Description: For biochemical analyses an N-terminal six histidine-tagged LeuRS was over-expressed in Escherichia coli which were E. coli codon-optimised (GenScript, Piscataway N.J., USA), from human mitochondria and cytoplasm, and M. tuberculosis. N-terminal six histidine-tagged LeuRS proteins were over-expressed and purified according to Novagen (Madison, Wis., USA) using an E. coli BL21(DE3) T7 RNA polymerase over-expression strain.
Experiments were performed in 96-well microtiter plates, using 80 μL reaction mixtures containing 50 mM HEPES-KOH (pH 8.0), 30 mM MgCl2 30 mM KCl, 13 μM L-[^14C]leucine (306 mCi/mmol, Perkin-Elmer), 15 uM total E. coli tRNA (Roche, Switzerland), 0.02% (w/v) BSA, 1 mM DTT, 0.2 μM LeuRS and 4 mM ATP at 30° C. Reactions were started by the addition of 4 mM ATP. After 7 minutes, reactions were quenched and tRNA was precipitated by the addition of 50 μL of 10% (w/v) TCA and transferred to 96-well nitrocellulose membrane filter plates (Millipore Multiscreen HTS, MSHAN4B50). Each well was then washed three times with 100 μL of 5% TCA. Filter plates were then dried under a heat lamp and the precipitated L-[^14C]leucine tRNALeu were quantified by liquid scintillation counting using a Wallac MicroBeta Trilux model 1450 liquid scintillation counter (PerkinElmer, Waltham, Mass., USA). The only difference was with the human cytoplasmic LeuRS when we used tRNA isolated from Brewer's Yeast (Roche Diagnostics GmbH).
Reactions were initiated by the addition of 4 mM ATP. Reactions were stopped after 7 minutes then precipitated and counted to quantify radioactivity. IC50 values were determined using the Graphpad Prism software package (Graphpad Software Inc. (La Jolla, Calif., USA).

Mtb H37Rv = test: MIC determination against mycobacteria (resazurin); type: cell-based, M. tuberculosis; conditions: for MIC: Mycobacterium tuberculosis, read-out: Mtb H37Rv MIC (B); for Selectivity Index (A/B): HepG2 Tox50 (A) / Mtb H37Rv MIC (B)
HepG2 cells = test: HepG2 cytotoxicity assay (resazurin, 48 h); type: cell-based, human
Description: HepG2 cells (HB-8065) were fed fresh medium (Essential Minimum Eagle Medium, EMEM, supplemented with 5% fetal calf serum and 2 mM L-glutamine) the day before subculturing the plates. On the day of plate seeding, a cell suspension of 100,000 cells/mL in culture medium was prepared. Cell suspension (100 uL) was added in each well of a black 96-well microplate with clear bottom, collagen coated, (Becton Dickinson) except in column 11, that was dispensed only 100 uL of culture medium. The plates were incubated for 24 h. It was made up a range of 10 doses of test substances by preparing serial dilutions 1:2 from the stock solution in 100% DMSO and made a dilution of 1:200 of each dose in medium, to achieve a final concentration of 0.5% of DMSO. After 24 h, culture medium was removed from the plate and 150 uL of test compound dilutions were added in two replicates and 150 uL of 0.5% DMSO in culture medium to columns 11 and 12 (blank control). Plates were incubated for 48 and at 37° C., 5% CO2, 95% relative humidity. The medium was then removed and 200 uL of fresh culture medium was added and 50 uL of Resazurin solution to each well and incubated for 1 h and a half. Plates were removed from incubator to allow the fluorescence to stabilise at room temperature protected from light for 15 min. For read out of viability of cells we used Resazurine (BDH). Resazurin is used as an oxidation-reduction indicator that yields a colorimetric change and a fluorescent signal in response to metabolic activity. As cell grows, metabolic activity results in a chemical reduction of Resazurin indicated by a change from non-fluorescent blue to the reduced fluorescent pink form. The degree of Resazurin fluorescence is therefore, an indicator of the number of viable cells in the culture system. Fluorescence was measured at an excitation wavelength of 515 nm and an emission wavelength of 590 nm in a Microplate reader 1420 Multilabel HTS counter, Victor 2, (Wallac).
The fluorescence value of each well is corrected by subtracting the background value (average of column 11) from the absolute value. The percentages of inhibition are calculated relatively to the DMSO control wells (average of column 12). For each compound, the average value of the duplicate samples is calculated and the curve is fitted to Sigmoidal dose-response (variable slope) nonlinear regression curve adjustment (GraphPad) in order to calculate the IC50 (Tox50).

A. baumannii ATCC 17978 = test: General antimicrobial activity assay (CLSI broth microdilution), MIC; type: cell-based
Description: (§1) Whole-cell antimicrobial activity was determined by broth microdilution using the Clinical and Laboratory Standards Institute (CLSI) recommended procedure, Document M7-A7, “Methods for Dilution Susceptibility Tests for Bacteria that Grow Aerobically”.
(§2) Table 1 provides MIC values against bacterial strains K12; E. coli K12 tolC/Tn10; A. baumannii ATCC 17978; and P. aeruginosa PA01 for comparator compounds (C1-C15) shown in Table 4 and for G26-CH3. […] Similarly, compound G26-CH3 (Example 2) has poor activity against these Gram negative bacteria.

E. coli K12 = test: as above; type: cell-based
Description: as §1, §2

P. aeruginosa PA01 = test: as above; type: cell-based
Description: as §1, §2

Human cyto LeuRS = Human cyto LeuRS (Homo sapiens, UniProt Q9P2J5); test: LeuRS aminoacylation assay, IC50 determination; type: biochemical; conditions: tRNA from Brewer's Yeast
Human cyto LeuRS, sequence (Q9P2J5 whole entry): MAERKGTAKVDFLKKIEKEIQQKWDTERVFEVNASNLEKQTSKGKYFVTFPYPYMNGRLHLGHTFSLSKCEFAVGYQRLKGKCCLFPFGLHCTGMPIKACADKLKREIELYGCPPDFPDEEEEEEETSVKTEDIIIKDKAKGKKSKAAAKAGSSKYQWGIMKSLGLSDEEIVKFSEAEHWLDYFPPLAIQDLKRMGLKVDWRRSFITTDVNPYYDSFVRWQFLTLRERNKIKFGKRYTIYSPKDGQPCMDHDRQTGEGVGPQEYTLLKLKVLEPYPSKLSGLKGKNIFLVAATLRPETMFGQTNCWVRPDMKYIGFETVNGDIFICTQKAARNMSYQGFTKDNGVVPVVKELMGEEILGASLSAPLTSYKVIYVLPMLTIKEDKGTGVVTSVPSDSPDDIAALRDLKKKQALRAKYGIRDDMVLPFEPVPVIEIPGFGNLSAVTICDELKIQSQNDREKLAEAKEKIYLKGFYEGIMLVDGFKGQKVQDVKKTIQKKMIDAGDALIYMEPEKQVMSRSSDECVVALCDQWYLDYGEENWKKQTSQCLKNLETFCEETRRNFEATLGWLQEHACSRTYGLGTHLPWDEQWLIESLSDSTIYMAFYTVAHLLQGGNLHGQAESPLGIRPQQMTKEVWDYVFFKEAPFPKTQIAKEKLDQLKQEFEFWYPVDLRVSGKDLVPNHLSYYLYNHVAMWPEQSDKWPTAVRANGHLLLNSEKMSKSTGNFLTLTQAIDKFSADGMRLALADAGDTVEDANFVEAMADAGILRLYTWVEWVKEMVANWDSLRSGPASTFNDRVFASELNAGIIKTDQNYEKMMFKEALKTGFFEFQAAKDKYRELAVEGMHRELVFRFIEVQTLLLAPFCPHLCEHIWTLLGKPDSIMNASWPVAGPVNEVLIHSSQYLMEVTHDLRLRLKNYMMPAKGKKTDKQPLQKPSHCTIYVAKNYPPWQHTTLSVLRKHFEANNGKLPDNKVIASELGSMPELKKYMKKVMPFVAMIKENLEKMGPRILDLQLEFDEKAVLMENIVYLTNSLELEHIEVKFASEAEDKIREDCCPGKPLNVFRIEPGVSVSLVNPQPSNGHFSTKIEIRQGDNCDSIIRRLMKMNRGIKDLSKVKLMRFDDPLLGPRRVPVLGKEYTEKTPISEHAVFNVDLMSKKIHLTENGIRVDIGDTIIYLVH
E. coli K12 tolC::Tn10 = test: General antimicrobial activity assay (CLSI broth microdilution), MIC; type: cell-based; conditions: efflux pump deficient E. coli
Description: as §1, §2

S. pneumoniae ATCC 6301 = test: as above; type: cell-based
Description: as §1

S. aureus ATCC 29213 = test: as above; type: cell-based; parameters: unit not given beside the values
Description: as §1

[1] = tested on: mammalian cellular protein synthesis; test: Inhibition of protein synthesis in mammalian cells; type: cell-based
[2] = tested on: pathogenic Gram negative bacteria; test: General antimicrobial activity assay, summary in words for the panel; type: cell-based
Description: as §1, §2

[3] = M. tuberculosis standard strain H37Rv

## NC[C@H]1OB2OCCOc3ccc(-c4ccccc4)c1c32 [Example 3, (S)-(3-phenyl-7,8-dihydro-2H-1,6,9-trioxa-9a-borabenzo[cd]azulen-2-yl)methanamine hydrochloride]
Mtb LeuRS; read-out: Mtb LeuRS IC50
  pIC50: 4.92
Mtb H37Rv; H37RV
  MIC: 8.75 µM

## CC1(C)COc2c(Cl)ccc3c2B(OC3CN)O1 (centres unmarked) [Example C8-Cl]
Mtb H37Rv
  Selectivity Index (A/B): 10
HepG2 cells; human
  HepG2 cell 48 h Tox50 (A): >50 µM

## NC[C@H]1OB2OCCOc3ccc(-c4cccs4)c1c32 [Example 4, (S)-(3-(thiophen-2-yl)-7,8-dihydro-2H-1,6,9-trioxa-9a-borabenzo[cd]azulen-2-yl)methanamine]
Mtb LeuRS; read-out: Mtb LeuRS IC50
  pIC50: 3.52
Mtb H37Rv; H37RV
  MIC: 40.1 µM (≈ 11.5 µg/mL)

## NCC1OB2OCCOc3cccc1c32 (racemic) [Example C2-H]
A. baumannii ATCC 17978
  MIC: A. baumannii ATCC 17978: 2 µg/mL (≈ 9.76 µM)
E. coli K12
  MIC: E. coli K12: 2 µg/mL (≈ 9.76 µM)
P. aeruginosa PA01
  MIC: P. aeruginosa PA01: 2 µg/mL (≈ 9.76 µM)
Mtb H37Rv; H37RV
  MIC: 1.88 µM (≈ 0.385 µg/mL)
HepG2 cells; human
  HepG2 cell 48 h Tox50 (A): >50 µM

## CC1COc2c(Cl)cc(Cl)c3c2B(O1)OC3CN (centres unmarked) [Example C7-Cl2]
Mtb H37Rv
  Selectivity Index (A/B): >20
Mtb H37Rv; H37RV
  MIC: 2.5 µM (≈ 0.72 µg/mL)
HepG2 cells; human
  HepG2 cell 48 h Tox50 (A): >50 µM

## CCOc1ccc(Cl)c2c1B(O)O[C@@H]2CN [Example C6-Cl]
Mtb H37Rv
  Selectivity Index (A/B): 363
Mtb H37Rv; [3]
  MIC: 0.1 µM (≈ 0.0241 µg/mL)
HepG2 cells
  HepG2 cell 48 h Tox50 (A): 36.3 µM

## CC1(C)COB2OC(CN)c3cccc(c32)O1 (centres unmarked) [Example C10-H]
Mtb H37Rv
  Selectivity Index (A/B): 10
HepG2 cells; human
  HepG2 cell 48 h Tox50 (A): >50 µM

## CC1(C)COc2cccc3c2B(OC3CN)O1 (centres unmarked) [Example C12-H]
A. baumannii ATCC 17978
  MIC: A. baumannii ATCC 17978: 4 µg/mL (≈ 17.2 µM)
E. coli K12
  MIC: E. coli K12: 4 µg/mL (≈ 17.2 µM)
P. aeruginosa PA01
  MIC: P. aeruginosa PA01: 16 µg/mL (≈ 68.6 µM)
HepG2 cells; human
  HepG2 cell 48 h Tox50 (A): 24.5 µM

## NC[C@H]1OB2OCCOc3c(Cl)cc(Cl)c1c32 [Example C14-Cl2]
Mtb H37Rv
  Selectivity Index (A/B): >10
HepG2 cells; human
  HepG2 cell 48 h Tox50 (A): >50 µM

## c1cc2c3c(c1)OCCOB3OC2 [Example C1-H]
Mtb H37Rv; [3]
  MIC: 31 µM (≈ 5.46 µg/mL)

## NC[C@H]1OB2OCCOc3c(Cl)ccc1c32 [Example C13-Cl]
Mtb LeuRS; read-out: Mtb LeuRS IC50
  pIC50: 5.67
Mtb H37Rv
  Selectivity Index (A/B): >10
Mtb H37Rv; H37RV
  MIC: 5 µM (≈ 1.2 µg/mL)
HepG2 cells; human
  HepG2 cell 48 h Tox50 (A): >50 µM

## CCOc1ccc(Br)c2c1B(O)O[C@@H]2CN [Example C4-Br]
Human cyto LeuRS
  pIC50: 4.14 and 4.17
Mtb H37Rv
  Selectivity Index (A/B): 320
Mtb H37Rv; [3]
  MIC: 0.1 µM (≈ 0.0286 µg/mL)
HepG2 cells
  HepG2 cell 48 h Tox50 (A): 32 µM

## CC1(C)COB2OC(CN)c3c(Cl)ccc(c32)O1 (centres unmarked) [Example C9-Cl]
Mtb H37Rv
  Selectivity Index (A/B): >10
Mtb H37Rv; listed as C9-CI
  Selectivity Index (A/B): 10
Mtb H37Rv; H37RV
  MIC: 5 µM (≈ 1.34 µg/mL)
HepG2 cells; human
  HepG2 cell 48 h Tox50 (A): >50 µM

## CC1COc2cccc3c2B(O1)OC3CN (centres unmarked) [Example C11-H]
A. baumannii ATCC 17978
  MIC: A. baumannii ATCC 17978: 4 µg/mL (≈ 18.3 µM)
E. coli K12
  MIC: E. coli K12: 2 µg/mL (≈ 9.13 µM)
P. aeruginosa PA01
  MIC: P. aeruginosa PA01: 2 µg/mL (≈ 9.13 µM)
Mtb H37Rv; H37RV
  MIC: 1.56 µM (≈ 0.342 µg/mL)
HepG2 cells; human
  HepG2 cell 48 h Tox50 (A): > 50 µM
HepG2 cells; meaning of bracket not explained
  HepG2 cell 48 h, percentage in brackets beside Tox50: 40%

## NCCOc1cccc2c1B(O)OC2 [Example C3-H]
Mtb H37Rv
  Selectivity Index (A/B): >0.8
Mtb H37Rv; [3]
  MIC: 62 µM (≈ 12 µg/mL)
HepG2 cells
  HepG2 cell 48 h Tox50 (A): >50 µM

## Cc1ccc2c3c1[C@@H](CN)OB3OCCO2 [Example 2, (S)-(3-methyl-7,8-dihydro-2H-1,6,9-trioxa-9a-borabenzo[cd]azulen-2-yl)methanamine]
A. baumannii ATCC 17978
  MIC: A. baumannii ATCC 17978: >64 µg/mL
E. coli K12 tolC::Tn10
  MIC: E. coli K12 tolC::Tn10: >64 µg/mL
E. coli K12
  MIC: E. coli K12: >64 µg/mL
P. aeruginosa PA01
  MIC: P. aeruginosa PA01: >64 µg/mL
S. pneumoniae ATCC 6301
  MIC: S. pneumoniae ATCC 6301: >64
S. aureus ATCC 29213
  MIC S. aureus ATCC 29213: >64
Mtb LeuRS
  pIC50: 6.28
  activity against leucyl tRNA synthetase from M. tuberculosis: good activity
Human cyto LeuRS
  pIC50: 3.77
Mtb H37Rv; listed as Example 2 G26-CH3
  Selectivity Index (A/B): 4853 and > 4850
Mtb H37Rv; H37RV
  MIC: 0.2 µM (≈ 0.0438 µg/mL)
HepG2 cells; human
  HepG2 cell 48 h Tox50 (A): 971 µM
[1]
  impact on mammalian cellular protein synthesis: low impact
[1]; mammalian cells, read-out: Cell Prot Syn IC50
  pIC50: < 3.22
[2]
  activity against Gram negative bacteria: poor activity

## CCOc1cccc2c1B(O)O[C@@H]2CN [Example C5-H]
Mtb H37Rv
  Selectivity Index (A/B): 3
Mtb H37Rv; [3]
  MIC: 0.6 µM (≈ 0.124 µg/mL)
HepG2 cells
  HepG2 cell 48 h Tox50 (A): 1.8 µM
